According to PubChem BioAssay (NCI):
“And” between values parts separate entries of the source, which are not always exact repeats. Equal entries are not always repeated.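 Assay format: 96-well plates, 48-hour exposure. GI50: concentration for 50% inhibition of growth. TGI is the concentration that stops growth completely.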

Legend:
Test in all cases: growth of human tumour cells (NCI), 48 h
[1] = system: KM12 colon
[2] = system: SK-MEL-5 melanoma
[3] = system: SF-268 CNS
[4] = system: OVCAR-8 ovarian
[5] = system: HCT-15 colon
[6] = system: HOP-18 NSCLC
[7] = system: SW-620 colon
[8] = system: CAKI-1 renal
[9] = system: SNB-19 CNS
[10] = system: CCRF-CEM leukemia

Compound	TGI [1]	TGI [2]	TGI [3]	TGI [4]	TGI [5]	TGI [6]	TGI [7]	TGI [8]	TGI [9]	TGI [10]	GI50 [1]	GI50 [2]	GI50 [3]	GI50 [4]	GI50 [5]	GI50 [7]	GI50 [8]	GI50 [9]	GI50 [10]
CC(Cl)(/C=C/Cl)C(Cl)/C=C/C(Cl)(CCl)CBr (configuration not stated)	20.8 µM	25.1 µM	11.3 µM	13.2 µM	4.24 µM	11.6 µM	8 µM	28.1 µM	27.3 µM	11.3 µM									
C/C(=N\NC(=S)Nc1ccc(C(=O)O)cc1)c1ccccn1	68.9 µM	32.8 µM	> 100 µM	45.5 µM	> 100 µM	97.5 µM	39.1 µM	80.5 µM		> 100 µM									
Cc1cc(C)nc(NS(=O)(=O)c2ccc(Nc3c4ccccc4nc4c(C(=O)Nc5ccc(S(N)(=O)=O)cc5)cccc34)cc2)n1	> 100 µM	> 100 µM	> 100 µM	> 100 µM	> 100 µM	> 100 µM	> 100 µM	> 100 µM	> 100 µM	> 100 µM									
CCOC(=O)C1C=C2O[C@@H]3OC4(CCCCC4)O[C@@H]3C2[C@H]2C(=O)C=CC(=O)[C@@]12C(=O)OC (some centres not stated)	27.8 µM	33.9 µM	29.6 µM	13.9 µM	28.8 µM	32.4 µM	28.6 µM	31.3 µM	22.9 µM	9.94 µM									
CCOP(=O)(OCC)C1C(=O)O[C@H]2CCCC[C@@H]12 (some centres not stated)	> 100 µM	> 100 µM	> 100 µM	> 100 µM	> 100 µM	> 100 µM	> 100 µM	> 100 µM	> 100 µM	> 100 µM									
CCCCCCC(=O)C/C(CCC(=O)N(Cc1ccccc1)Cc1ccccc1)=N\Nc1ccc([N+](=O)[O-])cc1[N+](=O)[O-]	> 100 µM	> 100 µM	> 100 µM	> 100 µM	> 100 µM	> 100 µM	> 100 µM	> 100 µM	> 100 µM	56.1 µM									
O=[N+]([O-])c1ccc(-c2ccc(/C=N/n3c(-c4ccc(Cl)cc4)n[nH]c3=S)o2)cc1	61.4 µM	49.8 µM	> 100 µM	> 100 µM	> 100 µM	> 100 µM	> 68.5 µM	> 90.1 µM	> 72.7 µM	> 100 µM									
COc1cc(C2C(Cl)C(=O)N2n2cnc3ccccc3c2=O)cc(OC)c1OC (configuration not stated)	> 100 µM	> 100 µM	> 100 µM	> 100 µM	> 100 µM	> 100 µM	> 100 µM	> 100 µM	> 100 µM	> 100 µM									
O=S(=O)(O)CS(=O)(=O)OCCCl	> 100 µM	> 100 µM	> 100 µM	> 100 µM		> 100 µM	> 100 µM	> 100 µM	> 100 µM										
COc1ccc(-c2oc3cc(O)c(OC)c(O)c3c(=O)c2OC2OC(CO)C(O)C(O)C2O)cc1 (configuration not stated)	> 100 µM	> 100 µM		> 100 µM	> 100 µM	> 100 µM	> 100 µM		> 100 µM	> 100 µM									
O=C(c1cccs1)c1c(C(F)(F)F)n([O-])c2ccc(C(F)(F)F)cc2[n+]1=O	0.774 µM	0.914 µM	0.355 µM	0.479 µM	0.73 µM		0.325 µM	0.337 µM	2.53 µM	2.11 µM	0.295 µM	0.483 µM	0.182 µM	0.116 µM	0.286 µM	0.162 µM	0.18 µM	1.11 µM	0.224 µM
CC1(C)N=C(N)N=C(N)N1c1cccc(/C=C/C=C/c2cccc([N+](=O)[O-])c2)c1	15.5 µM	12.5 µM	17.4 µM	30 µM	> 100 µM		18.8 µM	> 100 µM	22.5 µM	18.9 µM	2.59 µM	2.96 µM	3.64 µM	13.8 µM	98.1 µM	2.56 µM	75.3 µM	6.04 µM	3.61 µM
CCOC(=O)Cc1c(Cc2[nH]c(C(=O)OCc3ccccc3)c(CC(=O)OCC)c2CC(=O)OCC)[nH]c(C(=O)OCc2ccccc2)c1CC(=O)OCC		> 100 µM	> 100 µM	> 100 µM	> 100 µM	> 100 µM	> 100 µM	> 100 µM	> 100 µM	> 100 µM									
Cc1ccc(S(=O)(=O)N/N=C/C(Br)=C(/Br)C(=O)O)cc1	33.1 µM	25.8 µM	30.2 µM	9.93 µM	8.67 µM		14 µM	18.1 µM	28.8 µM	9.67 µM									
Cc1ccc(S(=O)(=O)NC(CCC(=O)Nc2ccc(Cl)cc2)C(=O)Nc2ccc(Cl)cc2)cc1 (configuration not stated)	6 µM	3.94 µM	8.04 µM	8.62 µM	7.36 µM		8.59 µM	8.14 µM	4.4 µM	7.22 µM	0.112 µM	0.235 µM	0.862 µM	0.724 µM	0.118 µM	0.555 µM	0.473 µM	0.707 µM	0.203 µM
O=[N+]([O-])c1ccc(N/N=C\c2cc(Cl)ccc2O)nc1	> 100 µM	8.25 µM	22.9 µM	14.1 µM	> 100 µM		> 100 µM	1.07 µM	> 100 µM	> 100 µM	1.06 µM	1.81 µM	0.595 µM	0.97 µM	0.735 µM	0.873 µM	0.278 µM	3.41 µM	0.386 µM
CC(=O)Oc1c(C)n(CCCl)ccc1=O	> 100 µM	> 100 µM	> 100 µM	> 100 µM	> 100 µM	> 100 µM		> 100 µM	> 100 µM	> 100 µM									

Compound	TGI [1]	TGI [2]	TGI [3]	TGI [4]	TGI [5]	TGI [6]	TGI [7]	TGI [8]	TGI [9]	TGI [10]	GI50 [1]	GI50 [2]	GI50 [3]	GI50 [4]	GI50 [5]	GI50 [7]	GI50 [8]	GI50 [9]	GI50 [10]
O=C(Cc1ccccc1)NN1C(=O)C(Cl)C1c1cccc(O)c1 (configuration not stated)			53.7 µM	35.1 µM	42.7 µM	36.5 µM	16.7 µM	34.8 µM	> 100 µM	8.44 µM									
COc1cc(O)c(C(=O)/C=C/c2ccccc2)c(OC)c1	13.6 µM	24.2 µM	20.8 µM	10.1 µM	16.7 µM		23.8 µM	18.2 µM	14.6 µM	7.22 µM									
O=C(CCCc1c[nH]c2ccccc12)NC1CC(=O)c2c(Br)sc(Br)c21 (configuration not stated)	71.2 µM	30 µM	27.1 µM	> 100 µM	10.9 µM		41 µM	31.6 µM	29 µM	> 100 µM	23.5 µM	14.5 µM	10.5 µM	9.41 µM	3.51 µM	18.8 µM	10.2 µM	14.3 µM	12.9 µM
COc1ccc(N(C)c2nc(C)nc3ccccc23)cc1		< 0.01 µM	> 34 µM	> 63.1 µM	> 100 µM		> 100 µM	46.4 µM	> 100 µM	> 100 µM	< 0.01 µM	< 0.01 µM	< 0.01 µM	< 0.01 µM	< 0.01 µM	< 0.01 µM	< 0.01 µM	< 0.01 µM	< 0.01 µM
O=C1c2ccccc2-c2c1c1ccccc1c(=O)n2CCO	> 100 µM	33.1 µM	> 100 µM	> 100 µM	> 100 µM		> 100 µM	> 51.7 µM	> 100 µM	> 100 µM									
O/N=C1\CCc2cc(-c3nc(C4CCNCC4)[nH]c3-c3ccncc3)ccc21	> 25 µM	> 25 µM	> 25 µM	> 25 µM	> 25 µM		> 25 µM	> 25 µM	> 25 µM	> 25 µM	> 25 µM	> 25 µM	> 25 µM	> 25 µM	> 25 µM	> 25 µM	> 25 µM	> 25 µM	> 25 µM
O=C1c2cc3c(cc2-c2c1c1cc(Cl)c(Cl)cc1c(=O)n2CCCn1ccnc1)OCO3	37.1 µM	0.0407 µM	> 100 µM	> 100 µM	> 100 µM		> 100 µM	> 100 µM	> 100 µM	> 100 µM	0.0244 µM	< 0.01 µM	< 0.01 µM	< 0.01 µM	0.0257 µM	< 0.01 µM	< 0.01 µM	< 0.01 µM	< 0.01 µM
O=C1C=C[C@]2(C[C@@H](c3cccc(C(F)(F)F)c3)O[C@@H](c3cccc(C(F)(F)F)c3)O2)O1	13.9 µM	3.72 µM	4.14 µM	13.4 µM	4.13 µM		5.14 µM	12.4 µM	16.1 µM	13.1 µM	3.09 µM	1.8 µM	1.5 µM	3.03 µM	1.66 µM	1.76 µM	2.95 µM	3.13 µM	2.48 µM
CCOC(=O)/N=c1\ss/c(=N\C(=S)N(C)C)n1-c1ccccc1	> 100 µM	> 100 µM	> 100 µM	> 100 µM	> 100 µM		> 100 µM	> 100 µM	> 100 µM	> 100 µM	> 100 µM	18.8 µM	44.7 µM	> 100 µM	> 100 µM	> 100 µM			
COc1cc(CCc2cc(NC(=O)c3ccc(N4C[C@@H](C)N[C@@H](C)C4)cc3)n[nH]2)cc(OC)c1	> 10 µM and 11 µM	> 10 µM and 12.7 µM	> 10 µM and 20.7 µM	> 10 µM and 25.7 µM	> 10 µM and 23.6 µM		> 10 µM and 15.6 µM	> 10 µM and 21.8 µM	> 10 µM and 30.8 µM	> 10 µM and 18.3 µM	0.0759 µM and 0.107 µM	9.72 µM and 3.83 µM	> 10 µM and 5.88 µM	> 10 µM and 9.01 µM	> 10 µM and 9.71 µM	6.49 µM and 3.5 µM	> 10 µM and 5.76 µM	> 10 µM and 14.9 µM	> 10 µM and 3.69 µM
N#C/C(=C\c1c(-c2ccccc2)[nH]c2ccccc12)C(=O)c1ccc(Cl)cc1	23.6 µM	12.5 µM	24.8 µM	> 47.9 µM	> 100 µM		> 100 µM	> 31.2 µM	20.2 µM	> 100 µM	0.735 µM	0.782 µM	4.55 µM	6.16 µM	1.38 µM	0.554 µM	1.23 µM	3.07 µM	2.48 µM
COC(=O)[C@]12CC[C@@H](C)[C@H](C)[C@@H]1C1=CC[C@@H]3[C@@]4(C)CC(=O)[C@H](O)[C@@]5(C)COC(=C45)C[C@@]3(C)[C@]1(C)CC2	33.8 µM	30.2 µM	37.8 µM	39.2 µM	33.4 µM		33.6 µM	29.3 µM	42.1 µM	43.5 µM	17.7 µM	16.6 µM	19.2 µM	19.6 µM	18 µM	17.5 µM	15.6 µM	19 µM	19.7 µM
Cc1cc(Br)cc(C)c1NC(=O)C(=O)CC(=O)c1sc(-n2nc(-c3ccccc3)cc2-c2ccccc2)nc1C	> 100 µM		> 100 µM	> 100 µM	> 100 µM	> 100 µM	> 100 µM	> 100 µM	> 100 µM	> 100 µM									
CCCCCCCCCCCCCCCCCCNC(=O)[C@H]1CSC(c2ccc(OC)c(F)c2)N1 (some centres not stated)	7.9 µM	10.3 µM	4.14 µM	11.4 µM	> 53.1 µM		5.71 µM	16.9 µM	> 52.1 µM	8.13 µM	2.34 µM	2.92 µM	1.73 µM	2.56 µM	> 37.1 µM	1.5 µM	3.98 µM	21.2 µM	0.731 µM
COc1cc[nH]c1/C=C1\C(=O)Nc2ccc(F)c(C#C[C@@H](O)[C@@H](N)[C@@H](C)O)c21	2.19 µM	2.35 µM	2.42 µM	5.15 µM	18.3 µM		3.07 µM	5.73 µM	5.51 µM	2.35 µM	0.0312 µM	0.676 µM	0.663 µM	0.843 µM	0.839 µM	0.559 µM	0.415 µM	0.909 µM	0.709 µM
CCCCOC(=O)C(=O)C(CC(C(=O)Cc1ccccc1)c1ccccc1)C(=O)C=C(C)C (configuration not stated)	> 100 µM	> 100 µM	> 100 µM	> 100 µM	> 100 µM		> 100 µM	> 100 µM	> 100 µM	> 100 µM									
